In ChEMBL document CHEMBL3352242, “Structure-based design of substituted piperidines as a new class of highly efficacious oral direct Renin inhibitors” (ACS Med Chem Lett, 2014):
Activity calls are given as the source filed them. The rule behind the calls is not given here.

How the values were obtained:
Renin [1] = biological target: T1, Renin (Homo sapiens, UniProt P00797); test: Inhibition of human recombinant renin using fluorescence-quenched RE(EDANS)IHPFHLVIHTK(Dabcyl)R substrate by fluorimetric assay
T1 sequence (P00797 whole entry): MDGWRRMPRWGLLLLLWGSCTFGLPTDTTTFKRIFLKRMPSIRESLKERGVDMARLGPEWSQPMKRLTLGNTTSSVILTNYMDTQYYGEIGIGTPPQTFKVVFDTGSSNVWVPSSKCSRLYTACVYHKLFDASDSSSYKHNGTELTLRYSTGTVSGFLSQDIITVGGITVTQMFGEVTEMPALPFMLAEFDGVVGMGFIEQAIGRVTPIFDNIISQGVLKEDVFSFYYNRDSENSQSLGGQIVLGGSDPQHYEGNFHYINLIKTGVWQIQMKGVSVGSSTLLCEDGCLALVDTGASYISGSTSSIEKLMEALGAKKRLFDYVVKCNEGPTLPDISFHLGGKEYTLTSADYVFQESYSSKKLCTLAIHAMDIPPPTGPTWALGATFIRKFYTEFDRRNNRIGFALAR

Renin [2] = biological target: T1, Renin; test: Inhibition of human recombinant renin in presence of human plasma using Ac- IHPFHL-VIHNK-(DY-505-X5)-COOH substrate by fluorimetric assay
[3] = Clearance in human liver microsomes; type: ADME; conditions: read-out: CLH
[4] = Clearance in rat liver microsomes; type: ADME; conditions: read-out: CLH
[5] = Oral bioavailability in Sprague-Dawley rat at 6 mg/kg; type: ADME, organism-based; conditions: in vivo
[6] = Lipophilicity, logD of the compound at pH 6.8; type: physicochemical; conditions: buffer
[7] = Clearance in Sprague-Dawley rat at 2 mg/kg, iv; type: ADME, organism-based; design: dose 2 mg/kg, route intravenous; conditions: in vivo
[8] = Volume of distribution at steady state in Sprague-Dawley rat at 2 mg/kg, iv; type: ADME, organism-based; design: dose 2 mg/kg, route intravenous; conditions: in vivo, read-out: Vdss
[9] = Half life in Sprague-Dawley rat at 2 mg/kg, iv; type: ADME, organism-based; design: dose 2 mg/kg, route intravenous; conditions: in vivo
Rattus norvegicus [10] = test: Dose normalized Cmax inSprague-Dawley rat at 6 mg/kg, po; type: ADME, organism-based, Sprague-Dawley; design: dose 6 mg/kg, route oral; conditions: in vivo
Rattus norvegicus [11] = test: Dose normalized AUC (infinity) in Sprague-Dawley rat at 6 mg/kg, po; type: ADME, organism-based; design: dose 6 mg/kg, route oral; conditions: in vivo
[12] = biological target: Voltage-gated inwardly rectifying potassium channel KCNH2 (Homo sapiens, UniProt Q12809); test: Displacement of [3H]dofetilide from human ERG expressed in HEK293 cell membranes incubated for 90 mins by beta-counting method
Rattus norvegicus [13] = test: Reduction in mean arterial pressure in human renin and human angiotensinogen double transgenic rat at 100 mg/kg, po after 42 hrs; type: functional, organism-based; design: dose 100 mg/kg; conditions: Artery
Rattus norvegicus [14] = test: Reduction in mean arterial pressure in human renin and human angiotensinogen double transgenic rat at 1 to 100 mg/kg, po; type: functional, organism-based; conditions: Artery

Chain of Voltage-gated inwardly rectifying potassium channel KCNH2 (Q12809 whole entry): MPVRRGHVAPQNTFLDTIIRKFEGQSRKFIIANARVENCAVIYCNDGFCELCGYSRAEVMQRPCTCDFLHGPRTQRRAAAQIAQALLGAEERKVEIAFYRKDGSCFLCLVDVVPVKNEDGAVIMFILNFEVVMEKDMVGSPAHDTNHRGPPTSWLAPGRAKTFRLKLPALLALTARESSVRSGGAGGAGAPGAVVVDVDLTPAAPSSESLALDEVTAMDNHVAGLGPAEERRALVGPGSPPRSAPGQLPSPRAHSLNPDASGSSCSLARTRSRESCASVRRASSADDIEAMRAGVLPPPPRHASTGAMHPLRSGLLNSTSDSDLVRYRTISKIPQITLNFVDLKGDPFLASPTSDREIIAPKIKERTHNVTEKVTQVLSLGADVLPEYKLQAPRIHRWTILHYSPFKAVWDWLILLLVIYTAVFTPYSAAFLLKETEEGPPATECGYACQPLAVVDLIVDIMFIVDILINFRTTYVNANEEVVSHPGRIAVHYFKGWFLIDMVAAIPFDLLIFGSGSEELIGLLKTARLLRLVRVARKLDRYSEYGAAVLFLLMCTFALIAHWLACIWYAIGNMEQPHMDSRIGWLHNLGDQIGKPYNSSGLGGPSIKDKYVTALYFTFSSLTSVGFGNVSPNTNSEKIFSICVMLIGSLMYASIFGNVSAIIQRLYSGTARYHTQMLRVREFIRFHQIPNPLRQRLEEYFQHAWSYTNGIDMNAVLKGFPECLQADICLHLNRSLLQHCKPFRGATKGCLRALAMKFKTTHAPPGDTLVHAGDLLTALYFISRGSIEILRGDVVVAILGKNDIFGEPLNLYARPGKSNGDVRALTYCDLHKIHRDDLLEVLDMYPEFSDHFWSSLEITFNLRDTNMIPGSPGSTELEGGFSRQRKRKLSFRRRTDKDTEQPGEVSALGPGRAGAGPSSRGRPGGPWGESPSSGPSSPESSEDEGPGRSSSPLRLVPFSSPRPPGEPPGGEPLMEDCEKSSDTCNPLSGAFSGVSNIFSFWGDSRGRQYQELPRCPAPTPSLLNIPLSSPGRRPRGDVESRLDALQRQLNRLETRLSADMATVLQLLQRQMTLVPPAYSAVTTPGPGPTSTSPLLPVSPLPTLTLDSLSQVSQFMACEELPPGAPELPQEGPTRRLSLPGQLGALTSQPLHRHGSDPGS

| Structure (SMILES) | IC50 (Renin [1]) [nM] | IC50 (Renin [2]) [nM] | microsomal CLint [3] [µL/min/mg] | microsomal CLint [4] [µL/min/mg] | bioavailability [5] [%] | further results |
| --- | --- | --- | --- | --- | --- | --- |
| CCOC[C@@H](CC(C)C)NC(=O)[C@@H]1CNC[C@H](C(=O)N(c2cc(OC)c(C(C)C)cn2)C2CC2)C1 [listing 1 of 2 here] | – | – | – | – | – | logD [6]: 2.2 |
| Cc1ccc(S(=O)(=O)N[C@@H]2CNC[C@H](C(=O)NC(c3ccccc3)c3ccccc3)C2)cc1 (racemic) | 1200 | 15200 | – | – | – | – |
| CCOC[C@@H](CC(C)C)NC(=O)[C@@H]1CNC[C@H](C(=O)N(c2cc(OCC)c(CC)cn2)C2CC2)[C@@H]1O [listing 1 of 2 here] | 0.6 | 2.5 | 22 | 54 | – | – |
| CCOC[C@@H](CC(C)C)NC(=O)[C@@H]1CNC[C@H](C(=O)N(c2cc(OCC)c(CC)cn2)C2CC2)[C@@H]1O [listing 2 of 2 here] | – | – | – | – | – | logD [6]: 0.93 |
| CCOC[C@@H](CC(C)C)NC(=O)[C@@H]1CNC[C@H](C(=O)N(c2cc(OCC)c(CC)cn2)C2CC2)C1 [listing 1 of 2 here] | 0.2 | – | 46 | 62 | – | IC50 [12]: > 30000 nM |
| CCOC[C@@H](CC(C)C)NC(=O)[C@@H]1CNC[C@H](C(=O)N(c2cc(OCC)c(CC)cn2)C2CC2)C1 [listing 2 of 2 here] | – | – | – | – | – | logD [6]: 2.1 |
| CCOC[C@@H](CC(C)C)NC(=O)[C@@H]1CNC[C@H](C(=O)N(c2cc(OC)c(C(C)C)cn2)C2CC2)[C@@H]1O [listing 1 of 2 here] | – | 2 | 22 | 142 | – | – |
| CCOC[C@@H](CC(C)C)NC(=O)[C@@H]1CNC[C@H](C(=O)N(c2cc3c(cc2F)OC(C)(C)C(=O)N3CCCOC)C2CC2)C1.Cl | – | – | 61 | 198 | 20 | clearance [7]: 122 mL/min/kg; Vd [8]: 12 L/kg; half-life [9]: 1.9 h; Cmax/dose (Rattus norvegicus [10]): 12 nM/mg/kg; AUC/dose (Rattus norvegicus [11]): 49 nM·h/mg/kg |
| CCOC[C@@H](CC(C)C)NC(=O)[C@@H]1CNC[C@H](C(=O)N(c2ccc(C(C)C)cn2)C2CC2)C1 [listing 1 of 2 here] | – | 1.1 | < 3.4 | 13 | – | IC50 [12]: 7000 nM |
| CCOC[C@@H](CC(C)C)NC(=O)[C@@H]1CNC[C@H](C(=O)N(c2ccc(C(C)C)cn2)C2CC2)[C@@H]1O [listing 1 of 2 here] | – | – | – | – | – | Activity (Rattus norvegicus [13]): Active; Activity (Rattus norvegicus [14]): Dose-dependent effect |
| CCOC[C@@H](CC(C)C)NC(=O)[C@@H]1CNC[C@H](C(=O)N(c2ccc(C(C)C)cn2)C2CC2)C1.O=C(O)/C=C/C(=O)O | – | – | – | – | 45 | clearance [7]: 60 mL/min/kg; Vd [8]: 7.2 L/kg; half-life [9]: 6.5 h; Cmax/dose (Rattus norvegicus [10]): 63 nM/mg/kg; AUC/dose (Rattus norvegicus [11]): 296 nM·h/mg/kg |
| CCOC[C@@H](CC(C)C)NC(=O)[C@@H]1CNC[C@H](C(=O)N(c2cc(OC)c(C(C)C)cn2)C2CC2)C1 [listing 2 of 2 here] | 0.2 | 0.4 | 15 | 101 | – | IC50 [12]: > 30000 nM |
| CCOC[C@@H](CC(C)C)NC(=O)[C@@H]1CNC[C@H](C(=O)N(c2ccc(C(C)C)cc2)C2CC2)C1 | 4 | 5340 | – | – | – | – |
| CCOC[C@@H](CC(C)C)NC(=O)[C@@H]1CNC[C@H](C(=O)N(c2cc(OCC)c(CC)cn2)C2CC2)C1.O=C(O)C(O)C(O)C(=O)O | – | – | – | – | 44 | clearance [7]: 23.3 mL/min/kg; Vd [8]: 4.6 L/kg; half-life [9]: 7.4 h; Cmax/dose (Rattus norvegicus [10]): 155 nM/mg/kg; AUC/dose (Rattus norvegicus [11]): 690 nM·h/mg/kg |
| CCOC[C@@H](CC(C)C)NC(=O)[C@@H]1CNC[C@H](C(=O)N(c2cc(OC)c(C(C)C)cn2)C2CC2)[C@@H]1O [listing 2 of 2 here] | – | – | – | – | 61 | clearance [7]: 40 mL/min/kg; Vd [8]: 6.1 L/kg; half-life [9]: 7.7 h; Cmax/dose (Rattus norvegicus [10]): 74 nM/mg/kg; AUC/dose (Rattus norvegicus [11]): 511 nM·h/mg/kg; logD [6]: 0.93 |
| CCOC[C@@H](CC(C)C)NC(=O)[C@@H]1CNC[C@H](C(=O)N(c2ccc(C(C)C)cn2)C2CC2)C1 [listing 2 of 2 here] | – | – | – | – | – | logD [6]: 4.9 |
| CCOC[C@@H](CC(C)C)NC(=O)[C@@H]1CNC[C@H](C(=O)N(c2ccc(C(C)C)cn2)C2CC2)[C@@H]1O [listing 2 of 2 here] | 0.2 | 0.6 | < 3.4 | 52 | – | IC50 [12]: > 30000 nM |
| CCOC[C@@H](CC(C)C)NC(=O)[C@@H]1CNC[C@H](C(=O)N(c2cc(OC)c(C(C)C)cn2)C2CC2)C1.O=C(O)C(O)C(O)C(=O)O | – | – | – | – | 39 | clearance [7]: 40 mL/min/kg; Vd [8]: 4.3 L/kg; half-life [9]: 7 h; Cmax/dose (Rattus norvegicus [10]): 68 nM/mg/kg; AUC/dose (Rattus norvegicus [11]): 324 nM·h/mg/kg |
| CCOC[C@@H](CC(C)C)NC(=O)[C@@H]1CNC[C@H](C(=O)N(c2cc(OCC)c(CC)cn2)C2CC2)[C@@H]1O.O=C(O)/C=C/C(=O)O | – | – | – | – | 60 | clearance [7]: 12.3 mL/min/kg; Vd [8]: 2.6 L/kg; half-life [9]: 5.9 h; Cmax/dose (Rattus norvegicus [10]): 252 nM/mg/kg; AUC/dose (Rattus norvegicus [11]): 1630 nM·h/mg/kg |

Continued, in another order:

| IC50 (Renin [1]) [nM] | IC50 (Renin [2]) [nM] | microsomal CLint [3] [µL/min/mg] | microsomal CLint [4] [µL/min/mg] | bioavailability [5] [%] | Structure (SMILES) | further results |
| --- | --- | --- | --- | --- | --- | --- |
| 3 | 8 | 157 | 111 | 0.4 | COCCCn1cc(CN(C(=O)[C@H]2CNC[C@@H](C(=O)N[C@@H](CO)CC(C)C)C2)C2CC2)c2ccccc21 | – |
| 15 | 115 | – | – | – | COCCCn1cc(CN(C(=O)[C@H]2CNC[C@@H](C(=O)NCC(C)C)C2)C2CC2)c2ccccc21 (racemic) | – |
| 0.4 | 1 | 53 | 96 | 19 | CCOC[C@@H](CC(C)C)NC(=O)[C@@H]1CNC[C@H](C(=O)N(c2cc(OCCCOC)c(C(C)C)cn2)C2CC2)C1.Cl | clearance [7]: 80 mL/min/kg; Vd [8]: 11 L/kg; half-life [9]: 4.3 h; Cmax/dose (Rattus norvegicus [10]): 18 nM/mg/kg; AUC/dose (Rattus norvegicus [11]): 93 nM·h/mg/kg |
| 0.4 | 1 | 173 | 109 | < 0.1 | COCCCn1cc(CN(C(=O)[C@H]2CNC[C@@H](C(=O)N[C@H](CCO)c3ccccc3)C2)C2CC2)c2ccccc21 | – |
| 3 | 40 | 194 | 141 | 29 | COCCCn1cc(CN(C(=O)[C@H]2CNC[C@@H](C(=O)NCCC(C)C)C2)C2CC2)c2ccccc21 | – |
| 300 | – | – | – | – | COCCCn1cc(CN(C(=O)[C@H]2CNC[C@@H](NC(=O)CC(C)C)C2)C2CC2)c2ccccc21 (racemic) | – |
| 2600 | – | – | – | – | Cc1ccc(S(=O)(=O)N[C@@H]2CNC[C@H](C(=O)N(Cc3cccc(Cl)c3Cl)C3CC3)C2)cc1 (racemic) | – |
| 0.4 | 2 | 679 | 533 | – | COCCCn1cc(CN(C(=O)[C@H]2CNC[C@@H](C(=O)Nc3c(C)cccc3OC)C2)C2CC2)c2ccccc21 | – |
| 0.8 | 6 | 289 | 252 | – | CCOC[C@@H](CC(C)C)NC(=O)[C@@H]1CNC[C@H](C(=O)N(c2ccc(C(C)C)c(OCCCOC)n2)C2CC2)C1 | IC50 [12]: 3300 nM |
| 0.3 | 2 | 115 | 214 | – | CCOC[C@@H](CC(C)C)NC(=O)[C@@H]1CNC[C@H](C(=O)N(c2cc(OCCCOC)c(C(C)C)cc2F)C2CC2)C1 | – |
| 200 | – | – | – | – | CC(C)(C)OC(=O)N[C@@H]1CNC[C@H](C(=O)N(Cc2cccc(Cl)c2Cl)C2CC2)C1 (racemic) | – |
